Results as given in patent US10472353B2, “Salt and crystal forms of PLK-4 inhibitor” (University Health Network, priority 2013, dated 2019).
Where a name gives a salt, the structure may show the parent alone. Read-outs that look alike come from different tables or passages of the source.

Assays:
[1] = Solubility in deionized water; assay type: physicochemical
[2] = Pharmacokinetics after single oral dose, powder in capsule, plasma levels of compound (I) by LC/MS; assay type: in vivo, female Sprague-Dawley rats; conditions: Sprague-Dawley rats
Experimental: A single oral dose in solution and as powder in capsule of the HCl salt of (I), fumarate form D and maleate form A were administered to female Sprague-Dawley rats at 5 mg/kg. Blood samples were collected in the presence of lithium heparin, and were centrifuged to generate plasma. The plasma was then analyzed for compound (I) plasma levels by LC/MS.
All animals involved in the dosing schedule were weighed and assigned numbers. All capsules (Size 9 porcine hard gelatin capsules, Torpac) corresponding with each animal to be dosed were carefully numbered with a fine tip Sharpie. A small plastic weighing dish was placed on the scale, with one capsule lid placed on the dish and the base of the capsule loader with the other part of the capsule was loaded in the reservoir. The balance was tared. A funnel was placed on top of the capsule loading apparatus and the total mass was carefully noted. A piece of 4″×4″ wax paper was folded in half creating a crease down the median. A small amount of finely ground compound (Ground the compound if required using mortar and pestle) was deposited in the crease of the wax paper and refolded. The folded wax paper was gently angled over the capsule loader funnel apparatus. A fine scapula was used to tease an amount of compound powder out of the crease onto the funnel allowing it to trickle into the loading bay and ultimately the capsule. The difference in mass from the total mass was noted. The capsule loading funnel was removed and the balance door closed to ascertain the absolute weight of compound inside the capsule. The funnel was returned to the capsule loading apparatus and loading continued until the desired amount of drug was inside the capsule. Note: When adding minute quantities to the capsule, simply brushed fine powered drug that settled on the funnel into the loading column. The funnel was removed and the weight was recorded. Calculated the amount of actual drug by multiplying weighed material by the bioequivalence ratio. The amount of actual drug was recorded. The capsule lid on the weighing dish was used to close the capsule tightly until it clicked into place.
All animals (n=3/group) were dosed orally in a volume of 5 mL/kg. Following dosing, each rat was bled at each of the designated time points. For control animals, blood was collected by the same procedure. Blood was collected from the lateral saphenous vein. Blood aliquots (˜50 μL) were collected in tubes coated with lithium heparin, mixed gently, then kept on ice and centrifuged at 2,500×g for 15 minutes at RT, within 1 hour of collection. The plasma layer was collected, kept on ice and finally maintained frozen at −80° C. until further processing.
Bioanalytical quantitation using HPLC/tandem quadruple mass spectrometry (HPLC-MS) was performed. Plasma concentrations and […] were calculated and reported.
A 5 mg/mL standard solution in DMSO was diluted 100 fold and subsequently serial diluted in 50% DMSO. Aliquots (2 μL) of the serial dilutions were mixed with 18 μL of control plasma (20 μL total) for use as a standard curve. Plasma samples (20 μL) and standard samples were then diluted 5× with ice cold acetonitrile containing 100 ng/mL verapamil as internal standard (80% (v/v) acetonitrile). Acetonitrile precipitated samples and standards were filtered through 0.22 μm membranes in a 96-well format. Filtrates were then diluted with water to 30% acetonitrile.
LC: 10 μL of each sample and standard were injected onto a Waters Acquity CSH 1.7 μm 2.1×100 mm column at 0.6 mL/min by an Acquity UPLC. The C18 column was equilibrated at 10% acetonitrile. Compounds were eluted with a gradient to 99% acetonitrile. All mobile phases contained 0.1% (v/v) formic acid.
MS: Column eluent was analyzed by electrospray ionization into a tandem quadrupole mass spec system (Waters Xevo TQ). Eluent composition was analyzed for three ion-pairs specific for the internal standard and three ion-pairs specific for the analyte. […]

[3] = Gravimetric moisture sorption (dynamic vapour sorption, 25° C.); assay type: physicochemical; conditions: for Gravimetric Moisture Sorption: 25° C.
Experimental: Gravimetric moisture sorption experiments were carried out on a Hiden dynamic vapour sorption analyzer by first holding the sample at 40% RH and 25° C. until an equilibrium weight was reached or for a maximum of four hours. The sample was then subjected to an isothermal (25° C.) adsorption scan from 40 to 90% RH in steps of 10%. The sample was allowed to equilibrate to an asymptotic weight at each point for a maximum of four hours. Following adsorption, a desorption scan from […] RH (at 25° C.) was run in steps of −10% again allowing a maximum of four hours for equilibration to an asymptotic weight. An adsorption scan was then performed from 0% RH to 40% RH in steps of +10% RH.

[4] = Differential scanning calorimetry, phase transition of the polymorphs; assay type: physicochemical
Experimental: DSC analyses were carried out on a Mettler 822e differential scanning calorimeter or a TA instruments Q2000. Samples were weighed in an aluminum pan, covered with a pierced lid, and then crimped. Analysis conditions were 30-120, 30-200, 30-300° C. and 40-300° C. ramped at 10° C./min.
Form D can be directly prepared as follows: A 250-mL three neck RBF equipped with a stir bar was charged with compound (I) (6.01 g, 11 mmol) and fumaric acid (1.41 g, 12 mmol). Acetone (50 mL) was added and the slurry was heated to 50° C. until the solution became clear. Precipitation was observed after 10 min, and stirring was continued for an additional 30 min. MTBE (25 mL) was added and the solution was cooled to rt and stirred overnight. The solids were filtered and dried under vacuum at 60° C. for 2 d to give the title compound (I) as a white solid (6.65 g, 91%).

Q: For COc1ccc2c(c1)[C@]1(C[C@H]1c1ccc3c(/C=C/c4ccc(CN5C[C@@H](C)O[C@@H](C)C5)cc4)n[nH]c3c1)C(=O)N2 [Fumarate C], which “Solubility in DI water” value [1] is on record?
A: Its value is 0.625 mg/mL.

Q: For COc1ccc2c(c1)[C@]1(C[C@H]1c1ccc3c(/C=C/c4ccc(CN5C[C@@H](C)O[C@@H](C)C5)cc4)n[nH]c3c1)C(=O)N2 [HCl], which “Solubility in DI water” value [1] is on record?
A: The value was at least 100 mg/mL.

Q: And the AUC(0-t) ([2]; female, Sprague-Dawley, rat, plasma, po, 5 mg/kg, read-out: AUC0-tlast)?
A: Its AUC(0-t) is 2400 ng·h/mL.

Q: What about the Cmax ([2]; female, Sprague-Dawley, rat, plasma, po, 5 mg/kg, read-out: Cmax) of the same molecule?
A: The Cmax was 250 ng/mL.

Q: With COc1ccc2c(c1)[C@]1(C[C@H]1c1ccc3c(/C=C/c4ccc(CN5C[C@@H](C)O[C@@H](C)C5)cc4)n[nH]c3c1)C(=O)N2 [Phosphate] as the molecule, how does the “Solubility in DI water” value [1] read?
A: Its value is at least 100 mg/mL.

Q: What about the “Gravimetric Moisture Sorption” value ([3]; 60% RH) of the same molecule?
A: Its value is 6.1 wt % 60% RH.

Q: And the “Gravimetric Moisture Sorption” value ([3]; 90% RH)?
A: Its value is 10.9 wt % 90% RH.

Q: Which AUC0-tlast ([2]; 5.0 mg/kg) does the source give for COc1ccc2c(c1)[C@]1(C[C@H]1c1ccc3c(/C=C/c4ccc(CN5C[C@@H](C)O[C@@H](C)C5)cc4)n[nH]c3c1)C(=O)N2 [Maleate (form A)] here?
A: Its AUC0-tlast is 1500 ng·h/mL.

Q: And the Cmax ([2]; 5.0 mg/kg)?
A: The Cmax was 200 ng/mL.

Q: And the “Gravimetric Moisture Sorption” value ([3]; 60% RH, listed as Maleate A)?
A: Its value is 1.3 wt %, 60% RH.

Q: And the “Gravimetric Moisture Sorption” value ([3]; 90% RH, listed as Maleate A)?
A: Its value is 2.2 wt %, 90% RH.

Q: With COc1ccc2c(c1)[C@]1(C[C@H]1c1ccc3c(/C=C/c4ccc(CN5C[C@@H](C)O[C@@H](C)C5)cc4)n[nH]c3c1)C(=O)N2 [1:1 compound (I) maleate] as the molecule, how does the “Hygroscopicity (in words)” value [3] read?
A: The value was “non-hygroscopic”.

Q: With COc1ccc2c(c1)[C@]1(C[C@H]1c1ccc3c(/C=C/c4ccc(CN5C[C@@H](C)O[C@@H](C)C5)cc4)n[nH]c3c1)C(=O)N2 [Fumarate (form D)] as the molecule, how does the “Solubility in DI water” value ([1]; listed as Fumarate D) read?
A: The value was 0.17 mg/mL.

Q: And the “Stability among the four fumarate polymorphs (phase transition by DSC)” value [4]?
A: The value was “highest stability”.

Q: What about the AUC0-tlast ([2]; 5.0 mg/kg) of the same molecule?
A: Its AUC0-tlast is 2780 ng·h/mL.

Q: What about the Cmax ([2]; 5.0 mg/kg) of the same molecule?
A: The Cmax was 270 ng/mL.

Q: And the “Gravimetric Moisture Sorption” value ([3]; 60% RH, listed as Fumarate D)?
A: Its value is 2.1 wt % 60% RH.

Q: And the “Gravimetric Moisture Sorption” value ([3]; 90% RH, listed as Fumarate D)?
A: The value was 4.0 wt % 90% RH.

Q: With COc1ccc2c(c1)[C@]1(C[C@H]1c1ccc3c(/C=C/c4ccc(CN5C[C@@H](C)O[C@@H](C)C5)cc4)n[nH]c3c1)C(=O)N2 [Fumarate B] as the molecule, how does the “Gravimetric Moisture Sorption” value ([3]; 60% RH) read?
A: Its value is 3.7 wt % 60% RH.

Q: What about the “Hydrate formed on moisture sorption” value ([3]; 90% RH) of the same molecule?
A: Its value is “tetrahydrate”.

Q: And the “Gravimetric Moisture Sorption” value ([3]; 90% RH)?
A: The value was 10.5 wt % 90% RH.

Q: And the “Hygroscopicity (in words)” value ([3]; listed as Form B)?
A: The value was “hygroscopic”.

Q: Which “Hygroscopicity (in words)” value [3] does the source give for COc1ccc2c(c1)[C@]1(C[C@H]1c1ccc3c(/C=C/c4ccc(CN5C[C@@H](C)O[C@@H](C)C5)cc4)n[nH]c3c1)C(=O)N2 [1:1 Compound (I) fumarate] here?
A: Its value is “non-hygroscopic”.
